From US20030162814A1, “N-substituted 1-amino-1,1-dialkylcarboxylic acid derivatives” (priority 2000, published 2003)

Row | melting point [°C] | Compound
1 | 197 | CC(C)(Nc1cccc(C(=N)N)c1)C(=O)Nc1ccc(-c2ccccc2S(N)(=O)=O)cc1.O=C(O)C(F)(F)F
2 | 190 to 193 | CC(C)(C)NS(=O)(=O)c1ccccc1-c1ccc(NC(=O)C(C)(C)Nc2cccc(C#N)c2)cc1 [CB, N-(2′-tert-butylsulfamoyl-biphenyl-4-yl)-2-(3-cyanophenylamino)-2-methylpropionamide]
3 | 153 | CC(=O)O.CC(C)(C)NS(=O)(=O)c1ccccc1-c1ccc(NC(=O)C(C)(C)Nc2cccc(C(=N)N)c2)cc1
